Test results from patent publication US8034242B2, “Dialysis device” (Linden Technologies, Inc., priority 2004, dated 2011).

Tested on: plasma protein
Assay type: in vitro ADME, dog
Experimental: One dialysis device was used in an equilibrium dialysis study to measure plasma protein binding of warfarin. A 0.1 M warfarin solution was prepared by dissolving 0.154 g of warfarin in 5 ml of phosphate buffered salts (PBS). The pH was adjusted with 400 Tl of 6 M NaOH to a final volume of 5.761 ml and a final concentration of 86.8 mM. The warfarin solution was then diluted to 1 mM before adding to the plasma solution. 2.2 Tl of 1 mM warfarin was added to 2.2 ml plasma to make 1 TM final concentration of warfarin in the plasma. 1 ml of the warfarin-containing dog plasma was added inside the cylindrical membrane of each dialysis device and 1 ml of PBS to outside of the membrane. The filled device was placed in a 37° C. incubator with gentle shaking 100 Tl samples were withdrawn separately from the plasma and the buffer chambers at 0.5, 1, 2, 3, and 4 h intervals. To the plasma sample was added 100 μl of blank buffer. To the buffer sample was added 100 μl of blank plasma. After mixing, 50 μl of the plasma sample was withdrawn. To the plasma sample (50 μl) was added 450 μl of 1:1 ratio of plasma/buffer solution to make a 10-fold dilution. The sample from the buffer was not diluted. 200 μl acetonitrile was added to 200 μl each of the samples from plasma and the buffer. The mixtures were vortexed and then centrifuged at 13,000 rpm for 3 min. The resulting extracts were analyzed using an API-40003 LC/MS/MS system (Applied Biosciences/MDS SCIEX). […] The experiment was conducted in duplicate.

consistency of equilibrium curve (time to equilibrium): ≤ 1 h
dialysis reached equilibrium state (time): ≤ 30 min
ratio of protein binding (dog, 1 µM): ~99%
Compound: CC(=O)CC(c1ccccc1)c1c(O)c2ccccc2oc1=O (stereo not drawn) [warfarin]
